Measured values from patent US20240368153A1, “Aminopyridine-based MTA-Cooperative PRMT5 Inhibitors” (Mirati Therapeutics, Inc., priority 2021, published 2024).

Legend:
[1] = target: recombinant human dual expressed Avi PRMT5/His-MEP50 protein (Homo sapiens (Human), UniProt O14744); assay: HTRF binding assay in presence of MTA; details: 30 μM MTA
Outline: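 HTRF tracer-displacement binding using human Avi-PRMT5 (2-637)/His-MEP50 (2-342), baculovirus-expressed, with 30 μM MTA and 5 nM in-house tracer in 25 mM ADA pH 7.2, 1 mM TCEP, 50 mM NaCl, 0.002% Tween. Overnight at 2-8° C, then 0.5 nM anti-His-Tb 1 hr RT; 665/620 ratio ×10000.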

[2] = target: T1, PRMT5/MEP50 complex (Homo sapiens (Human), UniProt O14744); assay: PRMT5:MEP50 HotSpot Assay; type: biochemical; details: read-out: IC50 + 2 μM MTA, full-length histone H2A, presence of 2 μM MTA
T1 sequence (O14744 whole entry): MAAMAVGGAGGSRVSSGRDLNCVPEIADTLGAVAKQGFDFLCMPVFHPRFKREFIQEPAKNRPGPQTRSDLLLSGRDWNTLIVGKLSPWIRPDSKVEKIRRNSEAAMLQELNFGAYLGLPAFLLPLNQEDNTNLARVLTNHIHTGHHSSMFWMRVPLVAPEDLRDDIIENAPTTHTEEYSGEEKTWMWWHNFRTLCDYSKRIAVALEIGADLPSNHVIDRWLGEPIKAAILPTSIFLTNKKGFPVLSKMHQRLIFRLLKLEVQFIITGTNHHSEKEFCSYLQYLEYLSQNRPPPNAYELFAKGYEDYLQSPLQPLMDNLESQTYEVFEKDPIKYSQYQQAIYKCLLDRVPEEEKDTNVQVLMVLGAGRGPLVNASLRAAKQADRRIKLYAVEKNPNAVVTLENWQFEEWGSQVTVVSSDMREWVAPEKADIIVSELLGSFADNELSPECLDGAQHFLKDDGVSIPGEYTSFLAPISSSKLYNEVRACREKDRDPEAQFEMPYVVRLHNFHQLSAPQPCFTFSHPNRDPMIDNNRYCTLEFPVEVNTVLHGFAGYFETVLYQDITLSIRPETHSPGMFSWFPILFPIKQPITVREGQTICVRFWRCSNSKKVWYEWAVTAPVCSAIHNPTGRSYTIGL
T1 sequence (Q9BQA1 whole entry partner): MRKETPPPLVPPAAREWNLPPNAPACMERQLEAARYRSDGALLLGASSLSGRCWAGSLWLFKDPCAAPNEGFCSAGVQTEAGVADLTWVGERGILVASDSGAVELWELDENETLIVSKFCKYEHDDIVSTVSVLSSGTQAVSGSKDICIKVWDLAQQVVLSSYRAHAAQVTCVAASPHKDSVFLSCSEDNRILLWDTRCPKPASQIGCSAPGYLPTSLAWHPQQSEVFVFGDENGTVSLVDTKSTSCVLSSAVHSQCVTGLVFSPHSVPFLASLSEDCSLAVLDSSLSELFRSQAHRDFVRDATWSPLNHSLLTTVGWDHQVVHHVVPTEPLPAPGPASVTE
Method: The assay uses recombinant full-length histone H2A as the PRMT5 substrate. Enzymatic transfer of the tritiated methyl group from S-adenosyl-L-[methyl-3H]methionine to the histone H2A protein generated a radiolabeled histone […] in a scintillation counter to determine the activity of PRMT5 enzyme in the presence and absence of compound. […] Briefly, compounds of the present invention were solubilized in 100% DMSO at a highest concentration of 10 mM. […] Control samples lacking compound, PRMT5/MEP50 complex or various reaction components also were prepared and processed in parallel with compound test samples. SAH was used as a positive control for assay validation. To measure PRMT5 inhibitory activity. 1 nM PRMT5/MEP50 complex (Reaction Biology Corporation) was preincubated with test compound in assay buffer containing 5 μM full-length histone H2A for 20 min at room temperature. The enzymatic reaction was initiated by adding 1 μM tritiated S-adenosyl methionine (final concentration) and the reaction was allowed to proceed for 60 min. The reaction was stopped and transferred to filter paper for detection. The amount of tritiated H2A in each sample was determined using a scintillation counter.

[3] = target: PRMT5•SAM (biotinylated PRMT5-MEP50) (Homo sapiens (Human), UniProt O14744); assay: SPR binding assay, SAM running buffer; details: 20 μM SAM running buffer
Sequence of PRMT5•SAM (biotinylated PRMT5-MEP50) (O14744 whole entry, the tested form may be a part): as the sequence (O14744 whole entry) above
Sequence of PRMT5•SAM (biotinylated PRMT5-MEP50) (Q9BQA1 whole entry partner, the tested form may be a part): as the sequence (Q9BQA1 whole entry partner) above
Method: (§1) SPR screening was performed in MTA running buffer (25 mM Bicine pH 7.6, 100 mM NaCl, 1 mM TCEP, 20 μM MTA, 0.05% Tween-20 and 2% DMSO). The biotinylated PRMT5-MEP50 surface was equilibrated with MTA running buffer for 12 hours prior to the start. […] Subsequently, compound titration was repeated in SAM-running buffer (25 mM Bicine pH 7.6, 100 mM NaCl, 1 mM TCEP, 20 μM SAM, 0.05% Tween-20, and 2% DMSO). […] After double referencing, the steady-state response was extracted for each fragment concentration and was fit to the Langmuir isotherm equation to determine the equilibrium dissociation constant (KD).

[4] = target: T1, PRMT5/MEP50 complex; assay: PRMT5:MEP50 FlashPlate Assay; type: biochemical
Outline: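 3 nM human PRMT5/MEP50 pre-incubated 20 min at room temperature with compound and 40 nM biotinylated histone H4(1-15) peptide; reaction started with 1 μM ³H-SAM, run 20 min. Bound tritiated peptide counted by scintillation; IC50 from 10-point curves (top 50 μM) with and without MTA.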

[5] = target: PRMT5•MTA (biotinylated PRMT5-MEP50) (Homo sapiens (Human), UniProt O14744); assay: SPR binding assay, MTA running buffer; details: 20 μM MTA running buffer
Sequence of PRMT5•MTA (biotinylated PRMT5-MEP50) (O14744 whole entry): as the sequence (O14744 whole entry) above
Sequence of PRMT5•MTA (biotinylated PRMT5-MEP50) (Q9BQA1 whole entry partner): as the sequence (Q9BQA1 whole entry partner) above
Method: as §1

Sequence of recombinant human dual expressed Avi PRMT5/His-MEP50 protein (O14744 2-637): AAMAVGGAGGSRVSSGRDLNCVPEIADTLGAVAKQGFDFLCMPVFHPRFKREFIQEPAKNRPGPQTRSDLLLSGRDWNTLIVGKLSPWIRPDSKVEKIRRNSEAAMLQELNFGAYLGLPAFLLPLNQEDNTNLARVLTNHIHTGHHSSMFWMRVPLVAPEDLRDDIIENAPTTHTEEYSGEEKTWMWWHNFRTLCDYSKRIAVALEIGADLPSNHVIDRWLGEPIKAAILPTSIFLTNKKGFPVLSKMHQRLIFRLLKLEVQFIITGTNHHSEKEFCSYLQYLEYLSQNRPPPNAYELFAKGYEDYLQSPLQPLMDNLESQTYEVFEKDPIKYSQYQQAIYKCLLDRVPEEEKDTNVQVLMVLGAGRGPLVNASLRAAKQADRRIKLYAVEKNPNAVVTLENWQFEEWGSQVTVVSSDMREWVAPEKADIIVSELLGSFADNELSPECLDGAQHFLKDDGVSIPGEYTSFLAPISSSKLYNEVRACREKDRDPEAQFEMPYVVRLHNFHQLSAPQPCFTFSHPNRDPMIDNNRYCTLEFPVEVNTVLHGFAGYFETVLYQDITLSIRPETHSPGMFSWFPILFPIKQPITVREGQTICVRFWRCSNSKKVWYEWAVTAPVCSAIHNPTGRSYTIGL
Sequence of recombinant human dual expressed Avi PRMT5/His-MEP50 protein (Q9BQA1 2-342 partner): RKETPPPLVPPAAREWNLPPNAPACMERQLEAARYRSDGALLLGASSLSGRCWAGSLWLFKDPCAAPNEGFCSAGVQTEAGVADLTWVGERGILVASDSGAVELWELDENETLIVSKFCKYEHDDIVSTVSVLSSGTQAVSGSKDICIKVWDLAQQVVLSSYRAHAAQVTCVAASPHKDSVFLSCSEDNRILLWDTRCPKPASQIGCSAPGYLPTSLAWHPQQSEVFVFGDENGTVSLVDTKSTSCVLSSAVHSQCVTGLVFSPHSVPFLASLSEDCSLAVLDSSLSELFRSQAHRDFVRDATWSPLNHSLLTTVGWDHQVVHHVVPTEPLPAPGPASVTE

CC(=O)N(Cc1cc2nc(N)c(C)cc2[nH]1)c1ccc2ccccc2c1C#N [Example 14-2, N-[(5-amino-6-methyl-1H-pyrrolo[3,2-b]pyridin-2-yl)methyl]-N—(I-cyano-2-naphthyl)acetamide]
IC50 [1]: 2 nM
IC50 [2]: 553 nM
Kd [3]: 1 nM
IC50 ([4]; histone H4 peptide, absence of MTA, read-out: IC50): 798 nM
IC50 ([4]; read-out: IC50 + 2 μM MTA, histone H4 peptide, presence of 2 μM MTA): 1.72 nM
Kd [5]: 1 nM
